Here are results for 14 molecules from patent US8865623B2, “Herbicidally active cyclic diones and derivatives thereof, processes for their preparation, compositions, and method of controlling weeds” (Syngenta Limited, priority 2009, dated 2014).

Common to all, as to assay type: in vivo
Assay [1] concerns Lolium perenne (LOLPE). Briefly: Pre-emergence herbicidal activity, glasshouse pot test. As to conditions: Lolium perenne, 312 h, Rate 250 g/ha, evaluated after 13 days, read-out: Pre-emergence activity LOLPE (100=total damage to plant; 0=no damage to plant). The method, boiled down:
(§1)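 After sowing in standard soil, pots were cultivated for one day (pre-emergence) or eight days (post-emergence), then sprayed. Plants were watered twice daily in the glasshouse, and damage was rated 13 days after treatment, 0 being none and 100 total.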

Assay [2] concerns Avena fatua (AVEFA). The assay is described as above. As to conditions: Avena fatua, 312 h, Rate 250 g/ha, evaluated after 13 days, read-out: Pre-emergence activity AVEFA (100=total damage to plant; 0=no damage to plant). Summed up:
as §1

The test system of assay [3] is Echinochloa crus-galli (ECHCG). Described as above. As to conditions: Echinochloa crus-galli, 312 h, Rate 250 g/ha, evaluated after 13 days, read-out: Pre-emergence activity ECHCG (100=total damage to plant; 0=no damage to plant). The method, boiled down:
as §1

In assay [4] the test system is Alopecurus myosuroides (ALOMY). The assay is described as above. As to conditions: Alopecurus myosuroides, 312 h, Rate 250 g/ha, evaluated after 13 days, read-out: Pre-emergence activity ALOMY (100=total damage to plant; 0=no damage to plant). The method, boiled down: as §1
In assay [5] the test system is Lolium perenne (LOLPE). Description: Post-emergence herbicidal activity, glasshouse pot test. As to conditions: Lolium perenne, 312 h, rate 250 g/ha, evaluated after 13 days, read-out: Post-emergence activity LOLPE (100=total damage to plant; 0=no damage to plant). Summed up:
as §1

In assay [6] the test system is Avena fatua (AVEFA). Described as above. As to conditions: Avena fatua, 312 h, rate 250 g/ha, evaluated after 13 days, read-out: Post-emergence activity AVEFA (100=total damage to plant; 0=no damage to plant). The method, boiled down: as §1
Assay [7] has as its system Echinochloa crus-galli (ECHCG). The assay is described as above. The conditions noted are these: Echinochloa crus-galli, 312 h, rate 250 g/ha, evaluated after 13 days, read-out: Post-emergence activity ECHCG (100=total damage to plant; 0=no damage to plant). The method, boiled down:
as §1

Assay [8] deals with Alopecurus myosuroides (ALOMY). The assay is described as above. As to conditions: Alopecurus myosuroides, 312 h, rate 250 g/ha, evaluated after 13 days, read-out: Post-emergence activity ALOMY (100=total damage to plant; 0=no damage to plant). The method, boiled down: as §1

Take `CCc1ccc(Oc2ccc(Cl)cc2)cc1C1=C(O)CC2(CCOCC2)CC1=O` [Example A-36]: the pest or weed control at 250 g/ha in the assay with Lolium perenne (LOLPE) [1] (pre-emergence spray) is 90%; in the assay on Avena fatua (AVEFA) [2] (pre-emergence spray), 90%; in assay [3] (pre-emergence spray), 100%; in assay [4] (pre-emergence spray) it was 90%; with Lolium perenne (LOLPE) [5] (glasshouse), 90%; in the assay with Avena fatua (AVEFA) [6] (glasshouse), 100%. For the same molecule, the pest or weed control at 250 g/ha in assay [7] (glasshouse) and in assay [8] (glasshouse) was 100% each time.
Consider `CC1(C)OC(C)(C)C(O)=C(c2cc(Oc3cnc4cc(Cl)ccc4n3)ccc2C2CC2)C1=O` [Example A-279], for which the pest or weed control at 250 g/ha in the assay with Lolium perenne (LOLPE) [1] (pre-emergence spray) came to 100%; in the assay with Avena fatua (AVEFA) [2] (pre-emergence spray), 100%; in assay [3] (pre-emergence spray), 100%; in assay [4] (pre-emergence spray), 90%; in the assay on Lolium perenne (LOLPE) [5] (glasshouse), 100%; in the assay with Avena fatua (AVEFA) [6] (glasshouse) it was 100%. Also, the pest or weed control at 250 g/ha in assay [7] (glasshouse) and in assay [8] (glasshouse) was 100% each time.
Regarding `CCc1ccc(Oc2cc(C(F)(F)F)ccn2)cc1C1=C(O)C(C)(C)OC(C)(C)C1=O` [Example A-153], the pest or weed control at 250 g/ha is 60% in the assay on Lolium perenne (LOLPE) [1] (pre-emergence spray); 20% with Avena fatua (AVEFA) [2] (pre-emergence spray); 100% in assay [3] (pre-emergence spray); 50% in assay [4] (pre-emergence spray); 30% in the assay on Lolium perenne (LOLPE) [5] (glasshouse); 80% in the assay on Avena fatua (AVEFA) [6] (glasshouse). Further, the pest or weed control at 250 g/ha was 90% in assay [7] (glasshouse) and 70% in assay [8] (glasshouse).
Regarding `CCc1ccc(Oc2ccc(C(F)(F)F)cc2Br)cc1C1=C(O)CC(C)(C)CC1=O` [Example A-282], the pest or weed control at 250 g/ha in the assay with Lolium perenne (LOLPE) [1] (pre-emergence spray) was found to be 60%; in the assay with Avena fatua (AVEFA) [2] (pre-emergence spray) it was 10%; in assay [3] (pre-emergence spray) it was 100%; in assay [4] (pre-emergence spray), 10%; with Lolium perenne (LOLPE) [5] (glasshouse), 40%; in the assay with Avena fatua (AVEFA) [6] (glasshouse) it was 60%. The pest or weed control at 250 g/ha was 100% in assay [7] (glasshouse) and 70% in assay [8] (glasshouse).
Take `CC1(C)OC(C)(C)C(O)=C(c2cc(Oc3nc4ccc(C(F)(F)F)cc4s3)ccc2C2CC2)C1=O` [Example A-370]: the pest or weed control at 250 g/ha came to 90% with Lolium perenne (LOLPE) [1] (pre-emergence); 30% with Avena fatua (AVEFA) [2] (pre-emergence); 70% in assay [3] (pre-emergence); 50% in assay [4] (pre-emergence); 80% in the assay with Lolium perenne (LOLPE) [5]; 100% in the assay with Avena fatua (AVEFA) [6]. The pest or weed control at 250 g/ha worked out at 100% in assay [7] and 90% in assay [8].
With `CCc1ccc(Oc2c(F)cc(C#N)cc2F)cc1C1=C(O)C(C)(C)OC(C)(C)C1=O` [Example A-166], the pest or weed control at 250 g/ha was determined as 10% in the assay with Lolium perenne (LOLPE) [1] (pre-emergence spray); 20% in the assay with Avena fatua (AVEFA) [2] (pre-emergence spray); 40% in assay [3] (pre-emergence spray); 20% in assay [4] (pre-emergence spray); 20% in the assay on Lolium perenne (LOLPE) [5] (glasshouse); 20% in the assay on Avena fatua (AVEFA) [6] (glasshouse). For the same molecule, the results for the pest or weed control at 250 g/ha in assay [7] (glasshouse) and in assay [8] (glasshouse) were 60% and 30%, respectively.
`CCc1ccc(Oc2ccc(F)cc2Cl)cc1C1=C(O)CC(C)(C)CC1=O` [Example A-70]: the pest or weed control at 250 g/ha in the assay with Lolium perenne (LOLPE) [1] (pre-emergence spray) amounted to 50%; in the assay on Avena fatua (AVEFA) [2] (pre-emergence spray), 10%; in assay [3] (pre-emergence spray), 100%; in assay [4] (pre-emergence spray), 60%; with Lolium perenne (LOLPE) [5] (glasshouse), 10%; in the assay with Avena fatua (AVEFA) [6] (glasshouse), 10%. Also, the pest or weed control at 250 g/ha in assay [7] (glasshouse) stood at 70%; in assay [8] (glasshouse), 30%.
Take `CCc1ccc(Oc2ccc([N+](=O)[O-])cc2Cl)cc1C1=C(O)C(C)(C)OC(C)(C)C1=O` [Example A-201]: the pest or weed control at 250 g/ha in the assay with Lolium perenne (LOLPE) [1] (pre-emergence spray) turned out to be 30%; in the assay on Avena fatua (AVEFA) [2] (pre-emergence spray), 0%; in assay [3] (pre-emergence spray) it was 60%; in assay [4] (pre-emergence spray), 10%; in the assay on Lolium perenne (LOLPE) [5] (glasshouse), 70%; in the assay on Avena fatua (AVEFA) [6] (glasshouse), 60%. Moreover, the pest or weed control at 250 g/ha in assay [7] (glasshouse) worked out at 100%; in assay [8] (glasshouse), 60%.
Consider `CCc1ccc(Oc2ccc(Br)cc2)cc1C1=C(O)[C@@H]2CC[C@](C)(C1=O)C2(C)C` [Example A-234], for which the pest or weed control at 250 g/ha was found to be 90% with Lolium perenne (LOLPE) [1] (pre-emergence spray); 40% in the assay on Avena fatua (AVEFA) [2] (pre-emergence spray); 100% in assay [3] (pre-emergence spray); 70% in assay [4] (pre-emergence spray); 80% in the assay with Lolium perenne (LOLPE) [5] (glasshouse); 90% in the assay on Avena fatua (AVEFA) [6] (glasshouse). In addition, the pest or weed control at 250 g/ha in assay [7] (glasshouse) worked out at 100%; in assay [8] (glasshouse), 80%.
For the molecule `CCc1ccc(Oc2nc3ccc(Cl)cc3s2)cc1C1=C(O)CC(C)(C)CC1=O` [Example A-287], the pest or weed control at 250 g/ha turned out to be 100% with Lolium perenne (LOLPE) [1] (pre-emergence spray); 90% in the assay on Avena fatua (AVEFA) [2] (pre-emergence spray); 100% in assay [3] (pre-emergence spray); 100% in assay [4] (pre-emergence spray); 100% with Lolium perenne (LOLPE) [5] (glasshouse); 100% with Avena fatua (AVEFA) [6] (glasshouse). For the same molecule, the pest or weed control at 250 g/ha in assay [7] (glasshouse) and in assay [8] (glasshouse) was 100% throughout.
Take `CCc1ccc(Oc2ccc(OC)nn2)cc1C1=C(O)C(C)(C)OC(C)(C)C1=O` [Example A-124]: the pest or weed control at 250 g/ha is 0% with Lolium perenne (LOLPE) [1] (pre-emergence spray); 0% with Avena fatua (AVEFA) [2] (pre-emergence spray); 10% in assay [3] (pre-emergence spray); 0% in assay [4] (pre-emergence spray); 10% with Lolium perenne (LOLPE) [5] (glasshouse); 0% with Avena fatua (AVEFA) [6] (glasshouse). For the same molecule, the figures for the pest or weed control at 250 g/ha in assay [7] (glasshouse) and in assay [8] (glasshouse) were 40% and 10%, respectively.
Consider `CCc1ccc(Oc2ccc(Cl)c(C(F)(F)F)c2)cc1C1=C(O)C(C)(C)OC(C)(C)C1=O` [Example A-183], for which the pest or weed control at 250 g/ha with Lolium perenne (LOLPE) [1] (pre-emergence spray) turned out to be 80%; with Avena fatua (AVEFA) [2] (pre-emergence spray), 20%; in assay [3] (pre-emergence spray), 60%; in assay [4] (pre-emergence spray), 30%; with Lolium perenne (LOLPE) [5] (glasshouse), 40%; in the assay on Avena fatua (AVEFA) [6] (glasshouse), 50%. For the same molecule, the pest or weed control at 250 g/ha in assay [7] (glasshouse) was 90%; in assay [8] (glasshouse) it was 70%.
Turning to `CCc1ccc(Oc2ncc(Cl)cc2Cl)cc1C1=C(O)[C@@H]2CC[C@](C)(C1=O)C2(C)C` [Example A-318], the pest or weed control at 250 g/ha is 100% in the assay with Lolium perenne (LOLPE) [1] (pre-emergence spray); 90% with Avena fatua (AVEFA) [2] (pre-emergence spray); 100% in assay [3] (pre-emergence spray); 90% in assay [4] (pre-emergence spray); 100% in the assay with Lolium perenne (LOLPE) [5] (glasshouse); 90% in the assay on Avena fatua (AVEFA) [6] (glasshouse). In addition, the pest or weed control at 250 g/ha was 100% in assay [7] (glasshouse) and 90% in assay [8] (glasshouse).
For the molecule `CCc1ccc(Oc2ccc(Cl)c(F)c2)cc1C1=C(O)C(C)(C)OC(C)(C)C1=O` [Example A-31], the pest or weed control at 250 g/ha in the assay with Lolium perenne (LOLPE) [1] (pre-emergence spray) is 100%; in the assay with Avena fatua (AVEFA) [2] (pre-emergence spray) it was 80%; in assay [3] (pre-emergence spray), 100%; in assay [4] (pre-emergence spray), 90%; in the assay with Lolium perenne (LOLPE) [5] (glasshouse) it was 100%; in the assay with Avena fatua (AVEFA) [6] (glasshouse) it was 80%. For the same molecule, the pest or weed control at 250 g/ha in assay [7] (glasshouse) amounted to 100%; in assay [8] (glasshouse), 90%.
